# From PMC4568831 (Molecular pharmaceutics, 2015)
# Like-named read-outs stand apart in the source and are kept apart here.
# Key:
# [1] = Measurement of CFZ in tissues, partition ratios after prolonged oral dosing; format: in vivo, mice (male C57Bl6); details: mice, after eight week washout period
# [2] = In vitro precipitation / solubilization of CFZ in aqueous media; format: physicochemical; details: ~5 M HCl, diprotonated state
# [3] = humans; cited from earlier work
# [4] = mice; cited from earlier work
# [5] = cited from earlier work
smiles,measurement,setting,value
"CC(C)/N=c1\cc2n(-c3ccc(Cl)cc3)c3ccccc3nc-2cc1Nc1ccc(Cl)cc1 [CFZ, Clofazimine]",CFZ mass retained in spleen,[1],exceeded its combined mass retained in the other organs
same,pH at which CFZ was completely solubilized in aqueous media,[2],< 1
same,pharmacokinetic half-life t1/2,[3],~ 70 days
same,pharmacokinetic half-life t1/2,[4],170 h
same,half-life,"[5]; oral, after an acute dose",hours to days
same,half-life,[5]; upon prolonged oral administration,weeks to months
